Reference: patent US10851064B2, “ACSS2 inhibitors and methods of use thereof” (METABOMED LTD., priority 2017, dated 2020)

What was measured:
ACSS2 [1] = target: T1, ACSS2 (Homo sapiens, UniProt Q9NR19); test: cell-based
Procedure: Testing the inhibitory effect of compounds on the cellular activity of ACSS2 was done by tracing the incorporation of ^13C from ^13C-acetate into fatty-acids in MDA-MB-468 cells under hypoxic conditions of 1% 02. The assay was done for 5 hours in DMEM with 5.5 mM glucose, 1 mM sodium Pyruvate, 0.65 mM Glutamine, 3.5 ug/ml Biotin, 1% dialyzed serum, 0.5 mM 13C-acetate and with different concentrations of the inhibitors. At the end of the incubation, the cells were washed with cold PBS, harvested into glass tubes and undergo saponification. The level of ^13C incorporation into Palmitate was done by LC-MS analysis and the level of inhibition was calculated with PRISM software.

ACSS2 [2] = target: T1, ACSS2; test: biochemical

T1 sequence (Q9NR19 whole entry): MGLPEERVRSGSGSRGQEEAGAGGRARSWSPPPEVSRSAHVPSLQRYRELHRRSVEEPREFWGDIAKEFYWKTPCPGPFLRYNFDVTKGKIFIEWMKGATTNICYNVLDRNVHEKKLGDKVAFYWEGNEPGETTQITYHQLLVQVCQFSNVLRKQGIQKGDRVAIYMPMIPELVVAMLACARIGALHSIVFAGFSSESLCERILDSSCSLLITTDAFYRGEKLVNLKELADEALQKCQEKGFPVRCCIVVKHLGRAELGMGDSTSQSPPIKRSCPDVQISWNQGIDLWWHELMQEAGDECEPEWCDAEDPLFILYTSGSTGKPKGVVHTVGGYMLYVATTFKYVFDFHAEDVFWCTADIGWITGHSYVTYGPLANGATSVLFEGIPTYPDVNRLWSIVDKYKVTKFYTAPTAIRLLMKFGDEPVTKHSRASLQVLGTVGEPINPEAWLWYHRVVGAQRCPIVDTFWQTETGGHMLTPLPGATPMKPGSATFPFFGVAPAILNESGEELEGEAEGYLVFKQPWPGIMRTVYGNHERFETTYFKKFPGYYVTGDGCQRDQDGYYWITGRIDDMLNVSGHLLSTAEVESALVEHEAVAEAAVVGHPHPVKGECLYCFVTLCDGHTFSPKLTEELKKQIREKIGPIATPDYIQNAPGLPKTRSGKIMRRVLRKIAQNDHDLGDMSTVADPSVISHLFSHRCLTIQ

IC50 (ACSS2 [1]) [nM] | IC50 (ACSS2 [2]) [nM] | Compound
0.5 to 50 | 0.01 to 6 | COc1ccc(N2N=C(C)C(C(=O)Nc3cccc(C(C)(F)F)c3)C2=O)cc1OC (stereo not drawn) [compound 287]
0.5 to 50 | – | COc1ccc(N2N=C(C)C(C(=O)Nc3cccc(C(C)(F)F)c3)C2=O)cc1-c1cnccn1 (stereo not drawn) [compound 332]
0.5 to 50 | – | CC1=NN(c2ccc(OC(F)F)c(-c3cncnc3)c2)C(=O)C1C(=O)Nc1cccc(C(C)(F)F)c1 (stereo not drawn) [compound 316]
0.5 to 50 | – | COc1ccc(N2N=C(C)C(C(=O)Nc3cccc(C(C)(F)F)c3)C2=O)cc1-c1cccnc1 (stereo not drawn) [compound 320]
0.5 to 50 | 0.01 to 6 | CC1=NN(c2cccc(-c3nnc(C)o3)c2)C(=O)C1C(=O)Nc1cccc(C(C)(F)F)c1 (stereo not drawn) [compound 280]
0.5 to 50 | 0.01 to 6 | COc1ccc(N2N=C(C)C(C(=O)Nc3cccc(C(C)(F)F)c3)C2=O)cc1-c1ncco1 (stereo not drawn) [compound 301]
50 to 100 | 0.01 to 6 | CC1=NN(c2cccc(S(=O)(=O)N(C)C)c2)C(=O)C1C(=O)Nc1cccc(C(C)(F)F)c1 (stereo not drawn) [compound 252]
> 100 | 6 to 100 | COc1ccc(N2N=C(C)C(C(=O)Nc3cccc(-c4ncc[nH]4)c3)C2=O)cc1 (stereo not drawn) [compound 255]
> 100 | 6 to 100 | CC1=NN(c2cccc(C(F)(F)F)c2)C(=O)C1C(=O)Nc1cccc(-c2ncco2)c1 (stereo not drawn) [compound 257]
0.5 to 50 | 0.01 to 6 | COC(=O)c1cccc(N2N=C(C)C(C(=O)Nc3cccc(-c4ccco4)c3)C2=O)c1 (stereo not drawn) [compound 269]
50 to 100 | 0.01 to 6 | COc1ccc(N2N=C(C)C(C(=O)Nc3cccc(-c4cnccn4)c3)C2=O)cc1 (stereo not drawn) [compound 241]
0.5 to 50 | – | CC1=NN(c2ccc(OC3CCCC3)cc2)C(=O)C1C(=O)Nc1cccc(C(C)(F)F)c1 (stereo not drawn) [compound 319]
> 100 | – | COc1ccc(N2N=C(C)C(C(=O)Nc3cccc(C(C)(F)F)c3)C2=O)c(C(C)(C)C)c1 (stereo not drawn) [compound 305]
0.5 to 50 | – | CCCOc1ccc(N2N=C(C)C(C(=O)Nc3cccc(C(C)(F)F)c3)C2=O)cc1 (stereo not drawn) [compound 317]
0.5 to 50 | 0.01 to 6 | CC1=NN(c2ccc(OC(F)F)cc2)C(=O)C1C(=O)Nc1cccc(C(C)(F)F)c1 (stereo not drawn) [compound 298]
0.5 to 50 | – | CCC(F)(F)c1cccc(NC(=O)C2C(=O)N(c3ccc(OC)cc3)N=C2C)c1 (stereo not drawn) [compound 330]
0.5 to 50 | – | CC1=NN(c2ccc(OC(F)F)c(-c3ccncc3)c2)C(=O)C1C(=O)Nc1cccc(C(C)(F)F)c1 (stereo not drawn) [compound 315]
0.5 to 50 | 0.01 to 6 | COc1cccc(N2N=C(C)C(C(=O)Nc3cccc(C(C)(F)F)c3)C2=O)c1 (stereo not drawn) [compound 250]
0.5 to 50 | – | CC1=NN(c2ccc(OC(C)(C)C)cc2)C(=O)C1C(=O)Nc1cccc(C(C)(F)F)c1 (stereo not drawn) [compound 324]
0.5 to 50 | – | COc1ccc(N2N=C(C)C(C(=O)Nc3cccc(C(C)(F)F)c3)C2=O)cc1-c1ccccn1 (stereo not drawn) [compound 331]
0.5 to 50 | – | CCC(C)Oc1ccc(N2N=C(C)C(C(=O)Nc3cccc(C(C)(F)F)c3)C2=O)cc1 (stereo not drawn) [compound 321]

IC50 (ACSS2 [1]) [nM] | IC50 (ACSS2 [2]) [nM] | Compound
0.5 to 50 | 0.01 to 6 | COc1cccc(N2N=C(C)C(C(=O)Nc3cccc(-c4cnccn4)c3)C2=O)c1 (stereo not drawn) [compound 249]
> 100 | 0.01 to 6 | CC1=NN(c2cccc(C(=O)O)c2)C(=O)C1C(=O)Nc1cccc(C(C)(F)F)c1 (stereo not drawn) [compound 258]
> 100 | 0.01 to 6 | CC1=NN(c2ccc(-c3nnn[nH]3)cc2)C(=O)C1C(=O)Nc1cccc(C(C)(F)F)c1 (stereo not drawn) [compound 297]
0.5 to 50 | 0.01 to 6 | CC1=NN(c2cccc(-c3nccn3C)c2)C(=O)C1C(=O)Nc1cccc(C(C)(F)F)c1 (stereo not drawn) [compound 289]
> 100 | 0.01 to 6 | COC(=O)c1cccc(N2N=C(C)C(C(=O)Nc3cccc(-c4ncc[nH]4)c3)C2=O)c1 (stereo not drawn) [compound 167]
> 100 | 6 to 100 | COC(=O)c1cccc(N2N=C(C)C(C(=O)Nc3cccc(-c4ncco4)c3)C2=O)c1 (stereo not drawn) [compound 259]
0.5 to 50 | 0.01 to 6 | CC1=NN(c2ccc(S(=O)(=O)N(C)C)cc2)C(=O)C1C(=O)Nc1cccc(C(C)(F)F)c1 (stereo not drawn) [compound 253]
0.5 to 50 | 0.01 to 6 | [2H]C([2H])([2H])Oc1ccc(N2N=C(C)C(C(=O)Nc3cccc(C(C)(F)F)c3)C2=O)cc1 (stereo not drawn) [compound 286]
0.5 to 50 | – | CC1=NN(c2ccc(OC(F)F)c(-c3cccnc3)c2)C(=O)C1C(=O)Nc1cccc(C(C)(F)F)c1 (stereo not drawn) [compound 310]
0.5 to 50 | 0.01 to 6 | COc1ccc(N2N=C(C)C(C(=O)Nc3cccc(C(C)(F)F)c3)C2=O)cn1 (stereo not drawn) [compound 242]
> 100 | 6 to 100 | COc1ccc(N2N=C(C)C(C(=O)Nc3cccc(-c4ncc[nH]4)c3)C2=O)cn1 (stereo not drawn) [compound 244]
50 to 100 | 6 to 100 | COc1cccc(N2N=C(C)C(C(=O)Nc3cccc(-c4ncco4)c3)C2=O)c1 (stereo not drawn) [compound 251]
0.5 to 50 | – | CC1=NN(c2ccc(OC(C)C)cc2)C(=O)C1C(=O)Nc1cccc(C(C)(F)F)c1 (stereo not drawn) [compound 318]
0.5 to 50 | – | CC1=NN(c2ccc(OC(F)F)cc2F)C(=O)C1C(=O)Nc1cccc(C(C)(F)F)c1 (stereo not drawn) [compound 309]
0.5 to 50 | – | COc1ccc(N2N=C(C)C(C(=O)Nc3cccc(C(C)(F)F)c3)C2=O)cc1-c1ccccc1 (stereo not drawn) [compound 313]
50 to 100 | 0.01 to 6 | CC1=NN(c2cccc(-c3ncco3)c2)C(=O)C1C(=O)Nc1cccc(-c2cnccn2)c1 (stereo not drawn) [compound 227]
0.5 to 50 | 0.01 to 6 | CC1=NN(c2cccc(-c3ncco3)c2)C(=O)C1C(=O)Nc1cccc(-c2ccco2)c1 (stereo not drawn) [compound 228]
50 to 100 | – | CC1=NN(c2ccc(OC(F)F)c(-c3ccccc3)c2)C(=O)C1C(=O)Nc1cccc(C(C)(F)F)c1 (stereo not drawn) [compound 312]
0.5 to 50 | – | CC1=NN(c2ccc(OC(F)F)c(-c3cnccn3)c2)C(=O)C1C(=O)Nc1cccc(C(C)(F)F)c1 (stereo not drawn) [compound 328]
0.5 to 50 | – | CC1=NN(c2ccc(OC3COC3)cc2)C(=O)C1C(=O)Nc1cccc(C(C)(F)F)c1 (stereo not drawn) [compound 326]
50 to 100 | – | CC1=NN(c2ccc(OC(F)(F)F)cc2)C(=O)C1C(=O)Nc1cccc(C(C)(F)F)c1 (stereo not drawn) [compound 226]

IC50 (ACSS2 [1]) [nM] | IC50 (ACSS2 [2]) [nM] | Compound
0.5 to 50 | – | CC1=NN(c2ccc(OC(F)F)c(-c3ccccn3)c2)C(=O)C1C(=O)Nc1cccc(C(C)(F)F)c1 (stereo not drawn) [compound 327]
0.5 to 50 | – | COc1ccc(N2N=C(C)C(C(=O)Nc3cccc(C(C)(F)F)c3)C2=O)c(F)c1 (stereo not drawn) [compound 314]
0.5 to 50 | – | COc1ccc(N2N=C(C)C(C(=O)Nc3cccc(C(C)(F)F)c3)C2=O)cc1-c1cncnc1 (stereo not drawn) [compound 323]
0.5 to 50 | – | CC1=NN(c2ccc(OC3CCCCC3)cc2)C(=O)C1C(=O)Nc1cccc(C(C)(F)F)c1 (stereo not drawn) [compound 322]
0.5 to 50 | – | COc1cc(N2N=C(C)C(C(=O)Nc3cccc(C(C)(F)F)c3)C2=O)ccc1OC(F)F (stereo not drawn) [compound 311]
– | 6 to 100 | CC1=NN(c2ccc(OC(F)(F)F)cc2)C(=O)C1C(=O)Nc1csc(C(C)(F)F)c1 (stereo not drawn) [compound 295]
– | > 100000 | CC1=NN(C2CCN(C)CC2)C(=O)C1C(=O)Nc1ccccc1 (stereo not drawn) [compound 221, 3-methyl-1-(1-methylpiperidin-4-yl)-5-oxo-N-phenyl-4,5-dihydro-1H-pyrazole-4-carboxamide]
0.5 to 50 | – | CC1=NN(c2ccc(OC(F)F)cc2)C(=O)C1C(=O)Nc1cc(C(C)(F)F)ccc1CO (stereo not drawn) [compound 306]
– | 1000 to 100000 | CCc1cccc(NC(=O)C2C(=O)N(c3ccccc3)N=C2Cc2ccccc2)c1 (stereo not drawn) [compound 129, 3-benzyl-N-(3-ethylphenyl)-5-oxo-1-phenyl-4,5-dihydro-1H-pyrazole-4-carboxamide]
– | > 100000 | CC1=NN(c2ccccc2)C(=O)C1C(=O)Nc1ccccn1 (stereo not drawn) [compound 214, 3-methyl-5-oxo-1-phenyl-N-(pyridin-2-yl)-4,5-dihydro-1H-pyrazole-4-carboxamide]
0.5 to 50 | – | CC1=NN(c2ccc(OC3CCC3)cc2)C(=O)C1C(=O)Nc1cccc(C(C)(F)F)c1 (stereo not drawn) [compound 325]
– | 6 to 100 | COc1ccc(N2N=C(C)C(C(=O)Nc3cccc(C(C)(F)F)c3)C2=O)cc1-c1nnc(C)[nH]1 (stereo not drawn) [compound 385]
– | 100 to 1000 | CC1=NN(c2ccc(OC(F)F)cc2)C(=O)C1C(=O)Nc1cccc2cc[nH]c12 (stereo not drawn) [compound 346]
– | 6 to 100 | CC1=NN(c2ccc(S(=O)(=O)N(C)C)cc2)C(=O)C1C(=O)Nc1cccc(-c2ccco2)c1 (stereo not drawn) [compound 160, 1-(4-(N,N-dimethylsulfamoyl)phenyl)-N-(3-(furan-2-yl)phenyl)-3-methyl-5-oxo-4,5-dihydro-1H-pyrazole-4-carboxamide]
– | 100 to 1000 | COc1ccc(N2N=C(C)C(C(=O)Nc3cccc(C(C)(F)F)c3)C2=O)cc1-c1cc[n+]([O-])cc1 (stereo not drawn) [compound 345]
0.5 to 50 | – | CC1=NN(c2ccc(C3CC3)cc2)C(=O)C1C(=O)Nc1cccc(C(C)(F)F)c1 (stereo not drawn) [compound 308]
– | 1000 to 100000 | N#Cc1ccc(OCCNC(=O)c2cccc(C(O)CO)c2)cc1 (stereo not drawn) [compound 179]
– | 100 to 1000 | CCc1cccc(NC(=O)C2C(=O)N(c3ccncc3)N=C2C)c1 (stereo not drawn) [compound 125, N-(3-ethylphenyl)-3-methyl-5-oxo-1-(pyridin-4-yl)-4,5-dihydro-1H-pyrazole-4-carboxamide]
– | 0.01 to 6 | CCC(F)(F)c1cccc(NC(=O)C2C(=O)N(c3ccc(OC)cc3)N=C2C)c1 (stereo not drawn) [compound 435]
– | 100 to 1000 | CC(=O)c1cccc(NC(=O)C2C(=O)N(c3cccc(C(=O)O)c3)N=C2C)c1 (stereo not drawn) [compound 123, 3-(4-((3-acetylphenyl)carbamoyl)-3-methyl-5-oxo-4,5-dihydro-1H-pyrazol-1-yl)benzoic acid]
– | 6 to 100 | CCc1cccc(NC(=O)C2C(=O)N(c3ccc(OCC4CC4)cc3)N=C2C)c1 (stereo not drawn) [compound 143, 1-(4-(cyclopropylmethoxy)phenyl)-N-(3-ethylphenyl)-3-methyl-5-oxo-4,5-dihydro-1H-pyrazole-4-carboxamide]

Compound | IC50 (ACSS2 [1]) [nM] | IC50 (ACSS2 [2]) [nM]
COC(=O)c1cccc(N2N=C(C)C(C(=O)Nc3cccc(C(C)(F)F)c3)C2=O)c1 (stereo not drawn) [compound 261] | 0.5 to 50 | 0.01 to 6
CC1=NN(c2ccc(C(F)(F)F)cc2)C(=O)C1C(=O)Nc1cccc(C(C)(F)F)c1 (stereo not drawn) [compound 264] | 0.5 to 50 | 0.01 to 6
